Reference: patent publication US12350273B2, “Treatment of SMA” (Hoffmann-La Roche Inc., priority 2017, dated 2025)
Where two headings read alike, the source gives them in different places.

Key:
[1] = test system: human iPSCs; test: Cell cycle analysis of human iPSCs (flow cytometry); type: cell-based; details: for percentage of events in G1 phase, mean / percentage of events in G2 phase, mean / percentage of events in S phase, mean: 24 h
Procedure: For the analysis of the cell cycle, monkey stem cells were detached with Accutase (Stem Cell Technologies) and plated at 15000 cells/cm2 in 6 well plates coated with Matrigel (BD Biosciences) in MT medium supplemented with 10 ng/ml ActivinA, 15 ng/ml FGF2, and 10 μM Rock inhibitor. Cells were expanded for 1 day and then synchronized by starvation for 7 h in MT medium without supplements FGF2 and ActivinA. Before flow cytometry, cells were incubated for 24 h with fresh MT medium containing supplements FGF2 and ActivinA and test items at 80 nM, 400 nM, and 2000 nM or 30 nM rapamycin as positive control to arrest cells in G1 phase. Human stem cells were detached with Accutase (Stem Cell Technologies) and plated at 40000 cells/cm2 in 6 well plates coated with Matrigel (BD Biosciences) in mTeSR1 supplemented with 10 μM Rock Inhibitor Y-27632 (Sigma-Aldrich). Cells were expanded for 3 days with daily medium change. Since human iPSCs lose their properties during starvation by growth factor withdrawal, stem cells were synchronized with 200 ng/ml Nocodazole (Sigma-Aldrich) for 5 h and washed subsequently 2 times with mTesR1 Medium. Before flow cytometry, cells were incubated for 24 h with fresh TesR1 medium containing test items at 80 nM, 400 nM, and 2000 nM or 30 nM rapamycin as positive control to arrest cells in G1 phase.
For cell cycle analysis, human iPSCs were washed with PBS, detached with Accutase (Stem Cell Technologies) and collected by centrifugation. Cells were stained for 1 h at 37° C. with 600 ul of 7 AAD/Saponin/RNAse mix ([…] 7 AAD (#559925, BD), 50 μg/ml RNase, and 0.03% Saponin dissolved in FACS buffer (PBS, 5% FBS, 10 mM Hepes)). Cynomolgus monkey iPSCs were washed with PBS, detached with Accutase (Stem Cell Technologies) and collected by centrifugation. Cells were stained for 30 min at 37° C. in 300 ul standard MT medium (with FGF2 and ActivinA) containing 1 ul Vybrant Dye Cycle Violet Stain (#V35003, 1000× stock, Invitrogen) per ml medium. Additionally 2 ul 7 AAD (50 μg/ml 7 AAD) were added without permeabilization to label dead cells; cells were incubated for 10 min at 37° C. Flow cytometry analysis was performed using a Canto II cytometer (BD Biosciences) and data were analysed with the FlowJo software.

[2] = 39-week monkey toxicity study: toxicokinetics in plasma; type: in vivo, cynomolgus monkeys (Macaca fascicularis); details: for AUC(0-t) / Cmax: cynomolgus monkey, plasma
Procedure: Blood samples for toxicokinetics (nominally 0.5 mL) were taken from all test article-treated animals on Days 1, 12 (Week 2), 26 (Group 4 only), 57 (Week 9), 92 (Week 14), 180 (Week 26) and 267 (Week 39) of the dosing phase at the following time points: • 0 (predose), 1, 3, 7 and 24 hours postdose
An additional sample was taken at 72 hours postdose on Day 12 (i.e. Day 15) from all Group 4 animals.
Samples were taken from the femoral vein/artery. Each blood sample was mixed gently by hand then placed on crushed wet ice until centrifugation at 2300 g for 10 minutes at approximately 4° C. The resultant plasma was separated, split into two uniquely labelled clear polypropylene tubes and frozen at <−50° C. (nominally −80° C.). One sample was transported frozen on dry ice to the Principal Investigator for analysis, and the other was retained at Covance.

[3] = test system: SMN protein; test: SMN protein (HTRF) in brain and quadriceps muscle of C/C-allele mice; type: in vivo
Procedure: FIG. 1A-FIG. 1D: Increase in SMN Protein Expression In Vivo • HET=heterogygous. • C/C-allele mice and SMNΔ7 mice were treated with RO7034067. One hour after the last dose, brains and quadriceps muscles were collected and levels of SMN protein were assessed by HTRF. FIG. 1A. SMN protein in brains of C/C-allele mice. FIG. 1B. SMN protein in brains of SMNΔ7 mice. FIG. 1C. SMN protein in quadriceps muscle of C/C-allele mice. FIG. 1D. SMN protein in quadriceps muscle of SMNΔ7 mice. Data represent means±SEM of 5-6 animals per group and are expressed as fold change vs. vehicle-treated controls. *=p<0.05, **=p<0.01, ***=p<0.001 vs. untreated controls.
Adult C/C-allele mice were treated for 10 days with vehicle or RO7034067 (1, 3 or 10 mg/kg per os [PO], daily), and PND3 SMNΔ7 mice were treated for 7 days with vehicle or RO7034067 (0.1, 0.3, 1 or 3 mg/kg intraperitoneal [IP], daily). […] In SMNΔ7 mice, the SMN protein increase was only partial in both brain and muscle, reaching approximately 43% (brain) and 55% (muscle) of protein levels in heterozygous mice.

[4] = Aqueous solubility; type: physicochemical
[5] = test system: retina; details: monkey, in vivo
Text: Over the in-life duration of the 39-week monkey toxicity study with RO7034067, the low dose remained free of any test-item related changes in sdOCT and ERG until the last week of assessment (week 35).

In the case of `Cc1cn2nc(-c3cc(=O)n4cc(N5CCNC6(CC6)C5)ccc4n3)cc(C)c2n1` [RO7034067, 7-(4,7-diazaspiro[2.5]octan-7-yl)-2-(2,8-dimethylimidazo[1,2-b]pyridazin-6-yl)pyrido[1,2-a]pyrimidin-4-one], the “percentage of events in G1 phase, mean” value ([1]; 80 nM) is reported as 44.6%, the “percentage of events in G2 phase, mean” value ([1]; 80 nM) is reported as 29.2% and the “percentage of events in S phase, mean” value ([1]; 80 nM) is reported as 26.2%. For the same compound, the “percentage of events in G1 phase, mean” value ([1]; 400 nM) was 40.8%, the “percentage of events in G2 phase, mean” value ([1]; 400 nM) was 31.4% and the “percentage of events in S phase, mean” value ([1]; 400 nM) was 27.8%. For the same compound, the “percentage of events in G1 phase, mean” value ([1]; 2000 nM) was 37.6%, the “percentage of events in G2 phase, mean” value ([1]; 2000 nM) was 29.3% and the “percentage of events in S phase, mean” value ([1]; 2000 nM) was 33.1%. The “effect on cell cycle” value ([1]; concentration-dependent) was “cell cycle arrest in S phase”, the “gender differences for AUC(0-24h) or Cmax” value ([2]; any dose level, 39-week dosing phase) was “no relevant gender differences” and the “dose dependence of AUC(0-24h)” value ([2]; between 1.5 and 5 mg/kg/day on each evaluation day) was “roughly dose-proportional increase”. It also gave an AUC(0-t) ([2]; female, Day 12, 7.5 mg/kg/day oral, read-out: AUC(0-24h), female (mean)) of 10200 ng·h/mL, a Cmax ([2]; female, Day 12, 7.5 mg/kg/day oral, read-out: Cmax, female (mean)) of 1070 ng/mL and a Cmax ([2]; female, Day 267 (Week 39), 1.5 mg/kg/day oral, read-out: Cmax, female (mean)) of 396 ng/mL. For the same compound, the AUC(0-t) ([2]; female, Day 267, 1.5 mg/kg/day oral, read-out: AUC(0-24h), female (mean)) was 2060 ng·h/mL, the AUC(0-t) ([2]; female, Day 267, 3 mg/kg/day oral, read-out: AUC(0-24h), female (mean)) was 4850 ng·h/mL and the Cmax ([2]; female, Day 267, 3 mg/kg/day oral, read-out: Cmax, female (mean)) was 973 ng/mL. It also gave an AUC(0-t) ([2]; female, Day 267, 5 mg/kg/day oral (Group 4, 7.5/5), read-out: AUC(0-24h), female (mean)) of 6470 ng·h/mL, a Cmax ([2]; female, Day 267, 5 mg/kg/day oral (Group 4, 7.5/5), read-out: Cmax, female (mean)) of 1160 ng/mL and an AUC(0-t) ([2]; male, Day 12, 7.5 mg/kg/day oral, read-out: AUC(0-24h), male (mean)) of 11200 ng·h/mL. The Cmax ([2]; male, Day 12, 7.5 mg/kg/day oral, read-out: Cmax, male (mean)) was 1020 ng/mL, the Cmax ([2]; male, Day 267 (Week 39), 1.5 mg/kg/day oral, read-out: Cmax, male (mean)) was 414 ng/mL and the AUC(0-t) ([2]; male, Day 267, 1.5 mg/kg/day oral, read-out: AUC(0-24h), male (mean)) was 1870 ng·h/mL. It also gave an AUC(0-t) ([2]; male, Day 267, 3 mg/kg/day oral, read-out: AUC(0-24h), male (mean)) of 4880 ng·h/mL, a Cmax ([2]; male, Day 267, 3 mg/kg/day oral, read-out: Cmax, male (mean)) of 1000 ng/mL and an AUC(0-t) ([2]; male, Day 267, 5 mg/kg/day oral (Group 4, 7.5/5), read-out: AUC(0-24h), male (mean)) of 5880 ng·h/mL. The Cmax ([2]; male, Day 267, 5 mg/kg/day oral (Group 4, 7.5/5), read-out: Cmax, male (mean)) was 701 ng/mL, the “SMN levels in muscle compared with heterozygous mice” value ([3]; C/C-allele mice, 10 mg/kg) was “no different from those in heterozygous mice” and the “SMN protein levels in brain and muscle tissue, maximum effect” value ([3]; adult C/C-allele mice, 10 mg/kg PO daily, 10 days) was 2-3 fold. The aqueous solubility [4] was “high aqueous solubility” and the “individual AUC0-24h exposures without retina changes” value [5] was “up to 15,100 ng·h/mL”.
